Holding throughout (test): biochemical
Parameters in all cases: Kinase selectivity panel of 81 human kinases, ADP-Glo or HTRF, per cent inhibition at 1 uM
For orientation: ADP-Glo first removes unused ATP, then detects ADP through luciferase.

The target in one assay is ABL1 (Homo sapiens, UniProt P00519). The procedure, abridged:
(§1)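 Kinase-panel selectivity profiling of 81 kinases with compound at 1000 nM.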

The target of the next assay is T1, ALK4 (Homo sapiens, UniProt P36896).
T1 construct: gene ACVR1B
The gist of the method:
as §1

In the next assay the target is T2, CHK2 (Homo sapiens, UniProt O96017).
T2 construct: gene CHEK2
The gist of the method:
as §1

A further assay concerns the target CLK1 (Homo sapiens, UniProt P49759). The procedure, abridged: as §1
The target in the next assay is T3, CaMK1α (Homo sapiens, UniProt Q14012).
T3 construct: gene CAMK1
The procedure, abridged:
as §1

A further assay has as its target T4, HGK (Homo sapiens, UniProt O95819).
T4 construct: gene MAP4K4
The procedure, abridged: as §1

Another assay addresses T5, IKKα (Homo sapiens, UniProt O15111).
T5 construct: gene CHUK
The gist of the method: as §1

Another assay addresses T6, JNK1 (Homo sapiens, UniProt P45983).
T6 construct: gene MAPK8
The procedure, abridged: as §1

For a further assay, the target named is T7, PKD2 (Homo sapiens, UniProt Q9BZL6).
T7 construct: gene PRKD2
The gist of the method:
as §1

Another assay concerns the target PLK1 (Homo sapiens, UniProt P53350). The gist of the method: as §1
For another assay, the target named is T8, TIE2 (Homo sapiens, UniProt Q02763).
T8 construct: gene TEK
The procedure, abridged: as §1

Another assay addresses ULK2 (Homo sapiens, UniProt Q8IYT8). The gist of the method: as §1

1 molecule from paper PMC12394658, “Discovery of Zharp1-163 as a dual inhibitor of ferroptosis and necroptosis for the treatment of inflammatory disorders and kidney injury” (Cell Death Discovery, 2025) can be followed below.

Structures are written as SMILES.

Sequence of ULK2 (Q8IYT8 whole entry): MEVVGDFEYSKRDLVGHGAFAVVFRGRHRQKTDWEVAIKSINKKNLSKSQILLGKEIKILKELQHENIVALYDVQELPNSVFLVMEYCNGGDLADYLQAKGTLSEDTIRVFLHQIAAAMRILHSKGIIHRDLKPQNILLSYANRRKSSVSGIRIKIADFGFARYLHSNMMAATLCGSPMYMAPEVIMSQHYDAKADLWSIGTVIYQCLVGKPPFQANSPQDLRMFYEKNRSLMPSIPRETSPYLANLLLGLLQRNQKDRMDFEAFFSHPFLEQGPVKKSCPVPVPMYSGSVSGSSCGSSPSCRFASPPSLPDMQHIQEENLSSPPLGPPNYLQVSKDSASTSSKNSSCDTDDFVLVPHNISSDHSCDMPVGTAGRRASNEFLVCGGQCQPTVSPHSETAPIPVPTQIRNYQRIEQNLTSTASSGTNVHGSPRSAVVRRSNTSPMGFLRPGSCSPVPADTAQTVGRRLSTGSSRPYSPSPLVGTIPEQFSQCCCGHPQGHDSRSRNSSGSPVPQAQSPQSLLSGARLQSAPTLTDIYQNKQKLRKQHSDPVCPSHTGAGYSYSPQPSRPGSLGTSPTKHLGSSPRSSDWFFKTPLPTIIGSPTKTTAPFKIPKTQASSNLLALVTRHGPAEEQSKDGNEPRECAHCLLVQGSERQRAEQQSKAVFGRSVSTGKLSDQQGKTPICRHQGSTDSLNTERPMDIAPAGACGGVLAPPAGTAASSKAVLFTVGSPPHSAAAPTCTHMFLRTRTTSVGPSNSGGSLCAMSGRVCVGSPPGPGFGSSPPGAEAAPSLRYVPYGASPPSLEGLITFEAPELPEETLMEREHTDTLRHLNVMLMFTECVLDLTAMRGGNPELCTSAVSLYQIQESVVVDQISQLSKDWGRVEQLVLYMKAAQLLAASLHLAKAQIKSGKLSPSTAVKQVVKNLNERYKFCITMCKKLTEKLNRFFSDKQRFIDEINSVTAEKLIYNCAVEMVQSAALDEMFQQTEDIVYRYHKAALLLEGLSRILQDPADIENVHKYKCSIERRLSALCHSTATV
T1 sequence (P36896 whole entry): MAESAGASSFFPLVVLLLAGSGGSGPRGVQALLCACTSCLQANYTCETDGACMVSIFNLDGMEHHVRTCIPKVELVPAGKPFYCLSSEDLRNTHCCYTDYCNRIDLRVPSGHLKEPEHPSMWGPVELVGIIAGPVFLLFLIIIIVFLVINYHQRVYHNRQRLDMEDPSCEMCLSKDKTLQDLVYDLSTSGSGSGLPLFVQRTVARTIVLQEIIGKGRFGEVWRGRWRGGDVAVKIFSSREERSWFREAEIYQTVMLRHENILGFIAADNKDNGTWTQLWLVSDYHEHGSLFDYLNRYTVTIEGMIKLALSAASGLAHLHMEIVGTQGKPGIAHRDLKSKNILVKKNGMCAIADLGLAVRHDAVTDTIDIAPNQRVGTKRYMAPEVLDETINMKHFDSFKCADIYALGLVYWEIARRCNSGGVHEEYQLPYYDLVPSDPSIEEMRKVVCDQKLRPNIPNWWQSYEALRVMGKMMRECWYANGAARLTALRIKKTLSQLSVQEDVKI
T3 sequence (Q14012 whole entry): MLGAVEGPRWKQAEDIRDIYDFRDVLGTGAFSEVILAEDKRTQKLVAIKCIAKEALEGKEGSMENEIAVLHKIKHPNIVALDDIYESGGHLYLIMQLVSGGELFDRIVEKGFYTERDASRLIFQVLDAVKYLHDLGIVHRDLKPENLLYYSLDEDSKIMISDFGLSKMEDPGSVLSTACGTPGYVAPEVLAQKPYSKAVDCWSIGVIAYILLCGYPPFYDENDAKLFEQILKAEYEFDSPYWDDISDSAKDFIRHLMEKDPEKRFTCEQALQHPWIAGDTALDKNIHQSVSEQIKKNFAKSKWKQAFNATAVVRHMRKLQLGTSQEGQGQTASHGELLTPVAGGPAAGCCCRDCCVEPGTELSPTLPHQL
Sequence of ABL1 (P00519 whole entry): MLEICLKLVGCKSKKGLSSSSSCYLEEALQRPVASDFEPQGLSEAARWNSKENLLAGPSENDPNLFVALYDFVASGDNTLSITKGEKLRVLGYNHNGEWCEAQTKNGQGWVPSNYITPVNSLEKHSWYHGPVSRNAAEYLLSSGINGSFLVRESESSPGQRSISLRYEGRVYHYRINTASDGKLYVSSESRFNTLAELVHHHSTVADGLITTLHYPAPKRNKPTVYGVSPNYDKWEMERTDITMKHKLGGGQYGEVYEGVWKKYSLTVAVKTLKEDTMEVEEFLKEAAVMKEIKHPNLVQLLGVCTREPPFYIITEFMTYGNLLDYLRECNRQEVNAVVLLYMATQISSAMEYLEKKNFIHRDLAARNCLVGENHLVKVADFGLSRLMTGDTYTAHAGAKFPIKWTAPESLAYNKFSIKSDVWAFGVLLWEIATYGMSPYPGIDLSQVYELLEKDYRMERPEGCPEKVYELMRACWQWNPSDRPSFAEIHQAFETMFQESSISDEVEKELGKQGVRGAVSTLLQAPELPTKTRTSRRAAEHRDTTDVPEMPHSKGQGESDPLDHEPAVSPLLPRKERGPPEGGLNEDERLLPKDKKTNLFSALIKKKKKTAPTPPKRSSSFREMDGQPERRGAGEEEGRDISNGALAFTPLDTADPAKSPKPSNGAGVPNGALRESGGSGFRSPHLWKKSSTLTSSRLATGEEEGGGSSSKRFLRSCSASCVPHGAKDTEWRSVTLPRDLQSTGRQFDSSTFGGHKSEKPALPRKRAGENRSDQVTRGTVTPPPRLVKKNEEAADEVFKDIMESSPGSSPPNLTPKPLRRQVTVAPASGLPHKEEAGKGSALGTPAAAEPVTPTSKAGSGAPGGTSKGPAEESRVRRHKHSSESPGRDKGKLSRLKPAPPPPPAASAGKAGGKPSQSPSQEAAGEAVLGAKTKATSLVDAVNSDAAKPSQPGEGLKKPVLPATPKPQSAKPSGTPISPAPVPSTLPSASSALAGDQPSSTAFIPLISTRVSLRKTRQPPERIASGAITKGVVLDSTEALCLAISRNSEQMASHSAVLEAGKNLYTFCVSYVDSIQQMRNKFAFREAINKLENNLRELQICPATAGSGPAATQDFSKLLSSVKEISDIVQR
T2 sequence (O96017 whole entry): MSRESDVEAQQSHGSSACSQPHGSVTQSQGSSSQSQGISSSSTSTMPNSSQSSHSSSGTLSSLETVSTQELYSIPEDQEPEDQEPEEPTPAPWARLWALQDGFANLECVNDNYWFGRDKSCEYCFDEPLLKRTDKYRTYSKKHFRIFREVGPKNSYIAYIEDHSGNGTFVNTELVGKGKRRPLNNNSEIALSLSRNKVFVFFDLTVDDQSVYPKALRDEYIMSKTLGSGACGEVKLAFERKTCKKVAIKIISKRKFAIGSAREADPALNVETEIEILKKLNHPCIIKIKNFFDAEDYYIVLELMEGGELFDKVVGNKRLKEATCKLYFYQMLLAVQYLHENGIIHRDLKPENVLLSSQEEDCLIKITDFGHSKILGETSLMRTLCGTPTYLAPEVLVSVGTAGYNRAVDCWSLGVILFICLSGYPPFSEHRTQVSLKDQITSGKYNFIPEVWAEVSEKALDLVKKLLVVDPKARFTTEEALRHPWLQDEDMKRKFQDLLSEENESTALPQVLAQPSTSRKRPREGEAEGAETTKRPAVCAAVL
T8 sequence (Q02763 whole entry): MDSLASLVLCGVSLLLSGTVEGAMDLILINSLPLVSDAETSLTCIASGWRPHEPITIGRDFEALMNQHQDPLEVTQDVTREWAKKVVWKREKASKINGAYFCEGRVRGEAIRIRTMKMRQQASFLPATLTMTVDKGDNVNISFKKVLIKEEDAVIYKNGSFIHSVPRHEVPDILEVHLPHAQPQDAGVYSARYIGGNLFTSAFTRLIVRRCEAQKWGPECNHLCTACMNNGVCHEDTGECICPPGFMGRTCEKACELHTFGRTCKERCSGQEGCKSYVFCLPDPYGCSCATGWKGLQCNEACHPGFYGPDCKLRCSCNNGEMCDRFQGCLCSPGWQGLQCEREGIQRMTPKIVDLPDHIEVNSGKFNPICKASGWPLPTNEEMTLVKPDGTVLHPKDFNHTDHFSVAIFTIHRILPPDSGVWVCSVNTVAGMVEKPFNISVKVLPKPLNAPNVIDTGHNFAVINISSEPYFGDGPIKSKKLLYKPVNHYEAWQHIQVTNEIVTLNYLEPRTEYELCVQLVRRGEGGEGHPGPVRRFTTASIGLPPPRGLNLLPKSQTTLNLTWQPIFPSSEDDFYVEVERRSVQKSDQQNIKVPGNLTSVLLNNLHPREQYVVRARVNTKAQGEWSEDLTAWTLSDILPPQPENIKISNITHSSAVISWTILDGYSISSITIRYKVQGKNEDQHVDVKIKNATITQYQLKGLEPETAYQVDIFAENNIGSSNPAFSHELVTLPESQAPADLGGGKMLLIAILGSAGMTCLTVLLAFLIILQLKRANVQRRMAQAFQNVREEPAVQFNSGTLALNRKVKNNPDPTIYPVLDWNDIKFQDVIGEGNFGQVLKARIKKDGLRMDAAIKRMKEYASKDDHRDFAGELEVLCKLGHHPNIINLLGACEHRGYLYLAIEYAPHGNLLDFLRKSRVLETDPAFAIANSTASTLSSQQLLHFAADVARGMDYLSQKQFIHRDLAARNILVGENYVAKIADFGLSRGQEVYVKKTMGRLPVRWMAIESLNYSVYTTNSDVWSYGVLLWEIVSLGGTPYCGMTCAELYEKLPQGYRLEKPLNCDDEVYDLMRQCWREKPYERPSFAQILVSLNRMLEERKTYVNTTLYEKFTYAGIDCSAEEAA

As a reminder, the inhibition is the relative decrease from the control value, in per cent. As to `Nc1cn2cc(-c3cnc4c(c3)N(C(=O)OC3CCCCC3)CCO4)ccc2n1` [Zharp1-163], the inhibition at 1 µM was 6.71% at ABL1 (replicate Data1); 9.11% against ABL1 (replicate Data2); -1.47% against ALK4 (replicate Data1); -2.74% at ALK4 (replicate Data2); 15.8% on CHK2 (replicate Data1); 1.85% against CHK2 (replicate Data2). Moreover, the inhibition at 1 µM against CLK1 (replicate Data1) is 38.1%; on CLK1 (replicate Data2), 33.2%; at CaMK1α (replicate Data1), -18.7%; against CaMK1α (replicate Data2), -6.35%; against HGK (replicate Data1) it was 4.09%; on HGK (replicate Data2), 11.5%. The inhibition at 1 µM on IKKα (replicate Data1) worked out at 0.19%; against IKKα (replicate Data2) it was 7.24%; against JNK1 (replicate Data1), 6.2%; at JNK1 (replicate Data2), 5.09%; against PKD2 (replicate Data1), 12%; on PKD2 (replicate Data2), 6.79%. Further, the inhibition at 1 µM on PLK1 (replicate Data1) was -5.06%; on PLK1 (replicate Data2) it was -18%; against TIE2 (replicate Data1) it was 11.9%; against TIE2 (replicate Data2), 26.5%; against ULK2 (replicate Data1) it was -5.94%; against ULK2 (replicate Data2), -8.78%.
